The target in one data set is T1, YAP (Mus musculus, UniProt P46938).
T1 construct: endogenous in cells; host or cells: E.G7-OVA, MOC2 and 4T1 mouse cancer cells
The data set can be described thus: Western blotting of YAP after verteporfin treatment. It counts as cell-based. The conditions noted are these: verteporfin 24 hours. As to the method:
(§1) Protein concentrations of the samples were quantified using a DCTM protein assay kit (5000111, Bio-Rad, Hercules, CA, USA). The samples were dissolved using radioimmunoprecipitation buffer (9806S; Cell Signaling Technology, Danvers, MA, USA) and subjected to SDS-PAGE. The samples were loaded onto a sodium dodecyl sulfate polyacrylamide gel, separated by gel electrophoresis, and transferred to a nitrocellulose membrane. The membrane was blocked with 5% skim milk and incubated overnight at 4° C. with primary antibodies against the following: Tsg101 (sc-22774; Santa Cruz, Dallas, TX, USA), YAP (sc99010), CD81 (sc-166029), ALIX (sc-53540), calnexin (ab22595; Abcam, Cambridge, United Kingdom), OVA (0220-1682; Bio-Rad), HMGB1 (ab18256; Abcam), HSP70 (ab181606; Abcam), or B-actin (4967S; Cell Signaling Technology). After washing five times (5 min each) with Tris-buffered saline containing 0.05% Tween-20 (TBS/T), the membrane was incubated with anti-mouse peroxidase (1:3000; A4416; Sigma-Aldrich) or anti-rabbit peroxidase (1:3000; A0545) secondary antibody at 20 to 25° C. for 1 hour. The membrane was then incubated with an ECL substrate (1705061, Bio-Rad) and visualized using a ChemiDoc™ Touch Imaging System (Bio-Rad).
In addition, the migration ability of TEV-stimulated tumor cells was evaluated using a transwell migration assay. […] E.G7-OVA cells were also evaluated using the same protocol, but due to non-adherent characteristics, invasive cells were counted in the lower wells of a transwell chamber rather than on a membrane (FIGS. 18 and 19). […] Due to the aggressive and metastatic characteristics of 4T1 cells, a matrigel coating was added to the transwell membrane for the invasion assay. […] Finally, to confirm the attenuation of the tumor-promoting properties of AI-TEV in vivo, the efficacy as a therapeutic vaccine was evaluated in a mouse model. The therapeutic vaccine was another well-studied form of tumor vaccine designed to suppress tumor growth and induce long-term antitumor memory.

The next data set has as its system 4T1 cells. The data set is described as follows: Cell viability assay (CCK-8) with verteporfin. The conditions noted are these: 24 hours. It counts as cell-based, mouse. As to the method: (§2) Cells were seeded in a 96-well plate (30096; SPL Life Sciences, Pochon, South Korea) (5,000 cells/well) and treated with various doses of verteporfin in a serum-free medium for 24 hours. Cell viability was measured using Cell counting kit-8 (CCK-8) assay (CK04; Dojindo, Kumamoto, Japan), and the absorbance was measured at 450 nm using a microplate reader (SpectraMAX 340; Molecular Devices, San Jose, CA, USA).
(§3) To determine appropriate conditions for AI-TEV production, three types of cancer cells were treated with various doses of verteporfin in a serum-free medium and cell viability was assessed. E.G7-OVA cells were a derivative of EL4 mouse lymphoma cells carrying a complete copy of chicken ovalbumin (OVA) mRNA. Mouse oral cancer 2 (MOC2) cells represented an aggressive form of mouse oral squamous cell carcinoma, while 4T1 cells were triple-negative, highly invasive malignant mouse breast cancer cells. The lowest dose of verteporfin that induced effective cell death was 20 ng/ml for E.G7-OVA cells and 200 ng/ml for MOC2 and 4T1 cells and cell viability was approximately 80% for all cell types (FIGS. 2 and 3). The immunogenicity of the cell death was verified based on an increase in DAMPs after verteporfin treatment. […] Tumor cells were cultured in a serum-free medium for 24 hours with or without verteporfin to prepare AI-TEV or control TEV (C-TEV), respectively. […] TEVs expressed several EV markers such as tumor susceptibility genes 101 (TSG101), CD81, and Alix, but had no negative marker calnexin (FIGS. 12 and 13). Since verteporfin inhibited both autophagy and YAP, it was expected that there was a significant difference in a proteomic cargo between C-TEV and AI-TEV.

The subject of the next data set is MOC2 cells. The data set can be described thus: Cell viability assay (CCK-8) with verteporfin. The format is cell-based, mouse. The conditions noted are these: 24 hours. As to the method: as §2, §3
In the next data set the test system is E.G7-OVA cells. The data set is described as follows: Cell viability assay (CCK-8) with verteporfin. It counts as cell-based, mouse. The note with it: 24 hours. As to the method: as §2, §3
The next data set relates to cancer cells. The data set is described as follows: Immunogenic cell death markers: calreticulin flow cytometry, HSP70/HMGB1 release Western blotting. It counts as cell-based, mouse. As to the method: as §1
Cells were seeded in a 6-well plate (30006; SPL Life Sciences, 5×10^5 cells/well) and treated with verteporfin in a serum-free medium for 3 hours. The cells were fixed with 0.25% paraformaldehyde for 5 minutes at 4° C. and then blocked with 3% bovine serum albumin for 15 minutes at 4° C. A calreticulin antibody (ab2907; Abcam) was added to the samples and incubated at 4° C. for 45 minutes. […] Calreticulin expression on the cell membrane was evaluated using flow cytometry gating of PI-negative cells.
To determine appropriate conditions for AI-TEV production, three types of cancer cells were treated with various doses of verteporfin in a serum-free medium and cell viability was assessed. […]

[1] abbreviates: conditioned medium, 24 hours after verteporfin treatment.

T1 sequence (P46938 whole entry): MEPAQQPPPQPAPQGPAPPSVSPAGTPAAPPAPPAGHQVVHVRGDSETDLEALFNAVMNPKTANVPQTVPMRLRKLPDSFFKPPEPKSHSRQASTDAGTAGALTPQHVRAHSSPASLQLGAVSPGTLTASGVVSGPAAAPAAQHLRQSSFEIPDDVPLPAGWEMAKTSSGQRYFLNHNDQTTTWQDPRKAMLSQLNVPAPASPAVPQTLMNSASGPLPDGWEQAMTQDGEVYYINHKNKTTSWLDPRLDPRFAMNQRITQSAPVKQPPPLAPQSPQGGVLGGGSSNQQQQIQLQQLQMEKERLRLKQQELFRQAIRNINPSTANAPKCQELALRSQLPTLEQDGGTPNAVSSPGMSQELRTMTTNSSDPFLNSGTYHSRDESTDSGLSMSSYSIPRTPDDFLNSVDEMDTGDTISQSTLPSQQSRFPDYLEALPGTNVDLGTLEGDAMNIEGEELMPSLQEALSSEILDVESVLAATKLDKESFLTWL

On to Verteporfin, for which, on YAP (4T1 cells), the YAP protein entry is given as “YAP inhibition”. In addition, the YAP protein content result at YAP (E.G7-OVA cells) and at YAP (MOC2 cells) was “decreased” each time. The cell viability result in the data set with 4T1 cells (200 ng/ml verteporfin), with MOC2 cells (200 ng/ml verteporfin) and in the data set on E.G7-OVA cells (20 ng/ml verteporfin) was “approximately 80%” throughout. The results for the “lowest dose of verteporfin that induced effective cell death” value in the data set on 4T1 cells (serum-free medium), in the data set with MOC2 cells (serum-free medium) and with E.G7-OVA cells (serum-free medium) were 200 ng/mL, 200 ng/mL and 20 ng/mL, respectively. Further, in the data set on cancer cells (cancer cells after verteporfin treatment, cell surface), the calreticulin expression result is “dose-dependent increase”. The “release of heat shock protein 70 (HSP70)” value in the data set on cancer cells (setting [1]) is “dose-dependent increase”. Also, the “release of high mobility group box 1 (HMGB1)” value with cancer cells (setting [1]) is on record as “dose-dependent increase”.

The values above are taken from patent publication US20250302933A1, “ATTENUATED YET IMMUNOGENICALLY POTENTIATED TUMOR EXTRACELLULAR VESICLE COMPOSITIONS AND USES THEREOF” (KOREA INSTITUTE OF SCIENCE AND TECHNOLOGY, priority 2024, published 2025).
